Species on record: Rattus norvegicus
Assay: Open TG-GATES - Regimen: Single
Format: toxicity, organism-based, Sprague-Dawley
Parameters: regimen Single, gender Male, age 6 weeks
Details: in vivo, po, 0 mg/kg, route gavage, dose level Control; for APTT / Bas / Eos / Fbg / Hb / Ht / Lym / MCH / MCHC / MCV / Mono / Neu / Plat / RBC / Ret / WBC: tissue Blood; for KIDNEY_L / KIDNEY_R / KIDNEY_TOTAL: tissue Kidney; for LIVER: tissue Liver; for ALP / ALT / AST / BUN / CRE / Ca / Cl / DBIL / GLC / IP / K / LDH / Na / PL / RALB / TBIL / TC / TG / TP / gamma-GTP: tissue Plasma

CC(=O)Oc1ccccc1C(=O)O [ASPIRIN]
TERMINAL_BW (3 h): 221 g | APTT (3 h): 17.5 s | Bas (3 h): 0.2% | Eos (3 h): 1.2% | Fbg (3 h): 226.6 mg/dL | Hb (3 h): 13.4 g/dL | Ht (3 h): 37.1% | Lym (3 h): 75.4% | MCH (3 h): 22 pg | MCHC (3 h): 36.1% | MCV (3 h): 60.8 fL | Mono (3 h): 2.2% | Neu (3 h): 20% | Plat (3 h): 118.6 x10_4/uL | RBC (3 h): 611.4 x10_4/ul | Ret (3 h): 8% | WBC (3 h): 87.8 x10_2/uL | KIDNEY_L (3 h): 1 g | KIDNEY_R (3 h): 1 g | KIDNEY_TOTAL (3 h): 2 g | LIVER (3 h): 9.9 g | ALP (3 h): 895.2 IU/L | ALT (3 h): 34.8 IU/L | AST (3 h): 72.4 IU/L | BUN (3 h): 9.8 mg/dL | CRE (3 h): 0.4 mg/dL | Ca (3 h): 10.7 mg/dL | Cl (3 h): 103.8 meq/L | DBIL (3 h): 0.066 mg/dL | GLC (3 h): 198.2 mg/dL | IP (3 h): 9.6 mg/dL | K (3 h): 3.9 meq/L | LDH (3 h): 186.2 IU/L | Na (3 h): 142.4 meq/L | PL (3 h): 138.4 mg/dL | RALB (3 h): 3.4 g/dL | TBIL (3 h): 0.1 mg/dL | TC (3 h): 77 mg/dL | TG (3 h): 48.8 mg/dL | TP (3 h): 5.5 g/dL | gamma-GTP (3 h): 1.2 IU/L | TERMINAL_BW (6 h): 217.3 g | APTT (6 h): 17.7 s | Bas (6 h): 0% | Eos (6 h): 0.8% | Fbg (6 h): 235 mg/dL | Hb (6 h): 13.9 g/dL | Ht (6 h): 38.3% | Lym (6 h): 77.2% | MCH (6 h): 22 pg | MCHC (6 h): 36.3% | MCV (6 h): 60.5 fL | Mono (6 h): 2.4% | Neu (6 h): 18.4% | Plat (6 h): 131.2 x10_4/uL | RBC (6 h): 632.8 x10_4/ul | Ret (6 h): 7.8% | WBC (6 h): 104.9 x10_2/uL | KIDNEY_L (6 h): 0.9 g | KIDNEY_R (6 h): 0.9 g | KIDNEY_TOTAL (6 h): 1.9 g | LIVER (6 h): 9 g | ALP (6 h): 815 IU/L | ALT (6 h): 32 IU/L | AST (6 h): 68.4 IU/L | BUN (6 h): 9 mg/dL | CRE (6 h): 0.4 mg/dL | Ca (6 h): 10.6 mg/dL | Cl (6 h): 103.2 meq/L | DBIL (6 h): 0.07 mg/dL | GLC (6 h): 185.8 mg/dL | IP (6 h): 9.5 mg/dL | K (6 h): 3.8 meq/L | LDH (6 h): 208.8 IU/L | Na (6 h): 141.2 meq/L | PL (6 h): 139.2 mg/dL | RALB (6 h): 3.4 g/dL | TBIL (6 h): 0.1 mg/dL | TC (6 h): 80.4 mg/dL | TG (6 h): 62.8 mg/dL | TP (6 h): 5.5 g/dL | gamma-GTP (6 h): 1 IU/L | TERMINAL_BW (9 h): 214.9 g | APTT (9 h): 17.3 s | Bas (9 h): 0% | Eos (9 h): 0.8% | Fbg (9 h): 224 mg/dL | Hb (9 h): 14 g/dL | Ht (9 h): 38.7% | Lym (9 h): 80.2% | MCH (9 h): 22.2 pg | MCHC (9 h): 36.3% | MCV (9 h): 61.1 fL | Mono (9 h): 2.4% | Neu (9 h): 15.2% | Plat (9 h): 121.8 x10_4/uL | RBC (9 h): 632.8 x10_4/ul | Ret (9 h): 8% | WBC (9 h): 88.9 x10_2/uL | KIDNEY_L (9 h): 0.9 g | KIDNEY_R (9 h): 0.9 g | KIDNEY_TOTAL (9 h): 1.8 g | LIVER (9 h): 8.6 g | ALP (9 h): 795.2 IU/L | ALT (9 h): 31.2 IU/L | AST (9 h): 64.8 IU/L | BUN (9 h): 9.4 mg/dL | CRE (9 h): 0.4 mg/dL | Ca (9 h): 10.4 mg/dL | Cl (9 h): 104 meq/L | DBIL (9 h): 0.066 mg/dL | GLC (9 h): 206.6 mg/dL | IP (9 h): 10 mg/dL | K (9 h): 3.8 meq/L | LDH (9 h): 205.6 IU/L | Na (9 h): 141.4 meq/L | PL (9 h): 128.6 mg/dL | RALB (9 h): 3.4 g/dL | TBIL (9 h): 0.1 mg/dL | TC (9 h): 69.2 mg/dL | TG (9 h): 46.2 mg/dL | TP (9 h): 5.6 g/dL | gamma-GTP (9 h): 1.2 IU/L | TERMINAL_BW (24 h): 234.6 g | APTT (24 h): 18.4 s | Bas (24 h): 0.8% | Eos (24 h): 1% | Fbg (24 h): 222.8 mg/dL | Hb (24 h): 13.8 g/dL | Ht (24 h): 37.7% | Lym (24 h): 77.2% | MCH (24 h): 22.6 pg | MCHC (24 h): 36.6% | MCV (24 h): 61.7 fL | Mono (24 h): 2.8% | Neu (24 h): 17.8% | Plat (24 h): 132 x10_4/uL | RBC (24 h): 611.8 x10_4/ul | Ret (24 h): 7.1% | WBC (24 h): 109.6 x10_2/uL | KIDNEY_L (24 h): 1 g | KIDNEY_R (24 h): 1 g | KIDNEY_TOTAL (24 h): 2 g | ALP (24 h): 1023.4 IU/L | ALT (24 h): 39 IU/L | AST (24 h): 72.4 IU/L | BUN (24 h): 15.8 mg/dL | CRE (24 h): 0.4 mg/dL | Ca (24 h): 10.6 mg/dL | Cl (24 h): 103.6 meq/L | DBIL (24 h): 0.062 mg/dL | GLC (24 h): 204.2 mg/dL | IP (24 h): 7.8 mg/dL | K (24 h): 3.9 meq/L | LDH (24 h): 207.2 IU/L | Na (24 h): 141.2 meq/L | PL (24 h): 153.4 mg/dL | RALB (24 h): 3.5 g/dL | TBIL (24 h): 0.1 mg/dL | TC (24 h): 74 mg/dL | TG (24 h): 124.4 mg/dL | TP (24 h): 5.6 g/dL | gamma-GTP (24 h): 1.2 IU/L

Source: ChEMBL document CHEMBL3885861, “Open TG-GATES”
